The values below come from article PMC9572811, “Synthesis of Novel Benzimidazole-Based Thiazole Derivatives as Multipotent Inhibitors of α-Amylase and α-Glucosidase: In Vitro Evaluation along with Molecular Docking Study” (Molecules, 2022).

The target of one data set is T1, α-amylase (Sus scrofa, UniProt P00690).
T1 sequence (P00690 16-511): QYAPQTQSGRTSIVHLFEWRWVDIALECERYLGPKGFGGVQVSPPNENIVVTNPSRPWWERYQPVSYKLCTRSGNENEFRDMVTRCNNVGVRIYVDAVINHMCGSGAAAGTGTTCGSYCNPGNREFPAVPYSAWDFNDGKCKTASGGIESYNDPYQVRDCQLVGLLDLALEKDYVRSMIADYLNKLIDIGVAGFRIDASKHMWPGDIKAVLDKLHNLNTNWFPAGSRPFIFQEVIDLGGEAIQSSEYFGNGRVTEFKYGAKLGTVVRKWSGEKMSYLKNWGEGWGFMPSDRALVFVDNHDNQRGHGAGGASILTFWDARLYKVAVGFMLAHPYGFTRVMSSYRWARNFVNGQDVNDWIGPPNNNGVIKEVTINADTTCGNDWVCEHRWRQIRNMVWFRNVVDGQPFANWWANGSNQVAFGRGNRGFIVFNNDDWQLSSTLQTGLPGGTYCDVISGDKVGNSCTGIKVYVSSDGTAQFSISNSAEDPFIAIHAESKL
The experiment in a line: α-amylase inhibition assay. Format: biochemical, Porcine.

[1] abbreviates: in vitro, porcine pancreatic α-amylase, starch substrate, acarbose as standard.

Read-outs that look alike come from different tables or passages of the source.

Method for α-amylase: 3.2. α-amylase inhibition assay
The a-amylase inhibition was determined by an assay modified from Kwon, Apostolidis&
Shetty. Five hundred microlitersof plant extract and all reagents were modified to 40 µL in this
assay. A total of 40 µL of sample and 40 µL of 0.02 M sodiumphosphate buffer (pH 6.9 with
0.006 M sodium chlori de) containinga-amylase solution (Porcine pancreatic a-amylase) (0.5
mg/ml)were incubated at 25 °C for 10 min. After pre-incubation, 40 lLofa 1% starch solution in
0.02M sodium phosphate buffer (pH 6.9with 0.006 M sodium chloride) was added to each tube
at 5 s intervals.The react ion mixtures were then i ncubated at 25 _C for 10 min.The reaction was
stopped with 100 µL of dinitrosalicylic acid colorreagent. The test tubes were then incubated in a
boiling water bathfor 5 min and cooled to room temperature. The reaction mixturewas then
diluted after adding 900 µL distilled water and the absorbancewas measured at 540 nm.
3.3. α-glucosidase inhibition assay
The α-glucosidase inhibition activity was performed with slightmodifications as given by Rahim
et al. Total volume of 100 μLreaction mixture contained, 70 μL 50mM phosphate buffer pH 6.8,
10μL (0.5mM in methanol) test compound, followed by the addition of 10μL (0.057 units, Sigma
Inc.) enzyme solution in the buffer.
and pre-read at 400 nm.The reaction was initiated by the addition of 10 μL of 0.5mM
substrate(p-nitrophenyl glucopyranoside, Sigma Inc.).
absorbance of p-nitrophenol was measured at 400 nm usingthe Synergy HT 96-well plate reader,
BioTek, USA. […] All experiments were carried out in
triplicates(mean ± SEM, n=3). Percent inhibition was calcul ated by the foll owing
Inhibition (%) = (Abs ofControl−Abs of Test/Abs of Control) × 100

The term melting point denotes the temperature of the solid-liquid transition. Usually IC50 stands for the concentration needed to halve the response being measured. The molecule `O=[N+]([O-])c1ccc(/C(CSc2nc3ccccc3[nH]2)=N\Nc2nc(-c3ccc(Cl)c(Cl)c3)cs2)cc1` [Compound 1] registered a melting point of 206 to 207 °C. The molecule also registered an IC50 at α-amylase of 2200 ± 100 nM.

In turn, `O=[N+]([O-])c1ccc(C(CSc2nc3ccccc3[nH]2)=NNc2nc(-c3ccc(F)cc3)cs2)cc1` [Compound 3] yielded a melting point of 199 to 200 °C. The IC50 on α-amylase (setting [1]) amounted to 1300 ± 50 nM.

As for `O=[N+]([O-])c1ccc(C(CSc2nc3ccccc3[nH]2)=NNc2nc(-c3ccccc3F)cs2)cc1` [Compound 4], the IC50 on α-amylase (setting [1]) worked out at 1900 ± 100 nM.
